Tested on: rabbit aorta
Experiment: Anti-atherosclerotic experiment: cholesterol-fed rabbits, aorta stained with Oil red O
Format: in vivo, Chinchilla rabbits
Settings: 1% cholesterol diet, 15 weeks, in drinking water; dihydrogen phosphate 165 mg/kg, hydrogen fumarate 174 mg/kg; compared with control and Meldonium dihydrate (124 mg/kg) groups
Protocol: Pharmacological experiment was carried out to examine the anti-atherosclerotic effect of Meldonium dihydrogen phosphate or Meldonium hydrogen fumarate in the aorta.
The experiments with Meldonium salt such as Meldonium dihydrogen phosphate or Meldonium hydrogen fumarate, were performed in 38 Chinchilla rabbits weighing 2.5-3.0 kg. The rabbits were randomly divided into 4 groups: Control (n=11), Meldonium dihydrate group (n=9) and Meldonium dihydrogen phosphate group (n=9) and Meldonium hydrogen fumarate group (n=9).
Experimental atherosclerosis, i.e. serum hyperlipidaemia and the atherosclerotic manifestations in the aorta, was induced by administering 1% cholesterol by weight together with standard diet.
The rabbits were fed with standard diet with 1% cholesterol dissolved in the sunflower seed oil (4% from the total amount of food). The diet was enriched with cholesterol as follows: 10 kg standard food for rabbits was heated to 60° C. and was mixed with 100 g warm cholesterol dissolved in 400 ml sunflower seed oil. The rabbits received 200 g of this food per day.
The experimental groups were given Meldonium dihydrate, Meldonium dihydrogen phosphate and Meldonium hydrogen fumarate, in a dose 124 mg/kg, 165 mg/kg and 174 mg/kg. The preparations were added to drinking water.
After 15 weeks the rabbits were sacrificed. Heart, aorta and liver were collected for examination. […]

Compound	reduction of the area of atherosclerotic plaque in rabbit aorta [fold]
C[N+](C)(C)NCCC(=O)O.O=P([O-])(O)O [Meldonium dihydrogen phosphate]	> 2
C[N+](C)(C)NCCC(=O)O.O=C([O-])C=CC(=O)O [Meldonium hydrogen fumarate]	> 2
